The values that follow come from patent US20240239775A1, “FXR REGULATOR, PREPARATION METHOD THEREFOR, PHARMACEUTICAL COMPOSITION THEREOF AND USE THEREOF” (QINGDAO RUIJI MEDICAL TECHNOLOGY CO., LTD., priority 2021, published 2024).

A value given as a limit tells only on which side of the number the result lay.

Series [1] in a line: Cell proliferation inhibition (cytotoxicity) by MTT assay, HEK293A. The note with it: human, HEK293A cells, 48 hours after administration, average of three independent repeated experiments. Type of series: cell-based. How it is done: The human embryonic kidney cell line HEK293A was subcultured in a medium containing penicillin (final concentration: 100 U/mL), streptomycin (final concentration: 100 μg/mL) and 10% FBS, in a humidified atmosphere of 95% air and 5% carbon dioxide at a constant temperature of 37° C. When the cells were 90% confluent, the old culture medium was discarded and the cells were washed twice with 2 mL of PBS. After the PBS was discarded, 2 mL of 0.25% trypsin-0.25% EDTA mixed digestion solution was added. When it was observed under a microscope that the cells became round, 2 mL of complete culture medium was added quickly to stop the digestion. The cell solution was pipetted gently to collect cells. The cells were centrifuged at 800 rpm, 4° C. for 5 min, the supernatant was discarded, the cells were resuspended in complete culture medium and cultured in bottles, and the medium was changed every other day.
(§1) The cell proliferation inhibition ability of compounds was tested by MTT assay. HepG2 and HEK293 cells were inoculated in a 96-well plate at a density of 30%. After incubation for 18 h to allow the cells to adhere, the original culture medium was removed, a given concentration of the compound to be tested was added to each well, and an equal amount of DMSO was added to the control group. Three replicate wells were set up for each compound. 48 hours after administration, cell viability was tested by MTT assay. The blank group was the wells where no cells were added, and then its OD value was read at 490 nm with a microplate reader. Calculation formula for cell viability: cell viability (%)=(ODto be tested−ODblank)/(ODcontrol−ODblank)×100.
On the technique in general: Formazan colour is commonly taken as a measure of viable cells.

For a further series, the target named is T1, FXR (Homo sapiens, UniProt Q96RI1).
T1 construct: 5 μL of 20 nM FXR-LBD Complete Coregulator buffer G; purchased ThermoFisher PV4833
T1 sequence (Q96RI1 262-486 limits assumed): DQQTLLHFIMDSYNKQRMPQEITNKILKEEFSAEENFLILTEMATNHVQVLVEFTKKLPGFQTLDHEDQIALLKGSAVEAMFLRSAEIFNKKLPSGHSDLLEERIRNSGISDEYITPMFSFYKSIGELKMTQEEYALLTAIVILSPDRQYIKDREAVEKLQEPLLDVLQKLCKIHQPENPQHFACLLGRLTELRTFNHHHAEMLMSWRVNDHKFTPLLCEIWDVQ
The series is described as follows: FXR antagonist screening by TR-FRET (LanthaScreen TR-FRET FXR co-activation assay kit). In kind it is biochemical. The note with it: Table 1.1, FXR antagonistic activity; TR-FRET with CDCA; geometric means of at least two independent runs. In a few lines:
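FXR-LBD (20 nM working solution) mixed with compound, CDCA (200 μM working solution) as agonist, Fluorescein-SRC2-2 and Tb-anti-GST antibody in Coregulator buffer G; 10 h at room temperature. Coactivator recruitment read by TR-FRET, triplicate wells.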

Another series has as its system HepG2 cells. The series is described as follows: Testing of TC/TG in HepG2 cells incubated with FFA (oleic acid and palmitate). In kind it is cell-based, human. The note with it: 24 h; for reduction of the increase in TG level of HepG2 cell induced by oleic acid and palmitate / reduction of the increase in TC level of HepG2 cell induced by oleic acid and palmitate: 20 μM compound, 0.5 mmol/L FFA; for reduction of the increase in TG level of HepG2 cell induced by oleic acid and palmitate: FIG. 1A; for reduction of the increase in TC level of HepG2 cell induced by oleic acid and palmitate: FIG. 1B. The protocol: Cell TC/TG was tested using Nanjing Jiancheng TG test kit and TC test kit. HepG2 cells were incubated with 0.5 mmol/L FFA (oleic acid and palmitate mixed at a ratio of 2:1) and a solvent or different concentrations (20 μM, 40 μM, 80 μM) of compounds for 24 h. The culture medium was discarded and the cells were washed once with 0.01 M PBS (pH 7.4). The cells were scraped off with a cell scraper. 2-5 mL of 0.01 M PBS (pH 7.4) was then added. The cell suspension was collected and then centrifuged at 1000×g, 4° C. for 10 min. According to the ratio of 10^6 cells/300-500 μL of homogenization medium, isopropyl alcohol was added for mechanical homogenization, such that the cells were thoroughly disrupted until there was no obvious cell precipitation. The cell solution was centrifuged at 10000×g, 4° C. for 10 min. The supernatant was taken and placed on ice for testing. 2.5 μL of distilled water, standard products or samples were well mixed with […] respectively. After incubation at 37° C. for 10 min, the absorbance value of each well was tested with a microplate reader at 510 nm. Calculation formula for TC/TG concentration: sample concentration (mmol/g protein)=(ODsample−ODblank)/(ODstandard−ODblank)×standard product concentration (mmol/L)/protein concentration (g protein/L).
Preparation of protein standard: a. 1.2 mL of standard protein solution was added to a tube of protein standard (30 mg BSA), and a 25 mg/mL standard protein solution was obtained after the protein standard was thoroughly dissolved. b. An appropriate amount of 25 mg/mL protein standard was diluted to the final concentration of 0.5 mg/mL. Preparation of BCA working solution: according to the number of samples, reagent A for the BCA working solution and reagent B for BCA working solution (v/v: 50:1) were well mixed to prepare an appropriate amount of BCA working solution. Determination of protein concentration: a. 0, 1, 2, 4, 8, 12, 16, and 20 μL of the protein standard were respectively added into the standard wells of the 96-well plate, and the diluted standard solution was then added to make up to 20 μL, which is equivalent to obtaining standard concentrations of 0, 0.025, 0.05, 0.1, 0.2, 0.3, 0.4, and 0.5 mg/mL, respectively. b. An appropriate volume of sample was added to the sample wells of the 96-well plate. If the sample is less than 20 μL, the diluted standard solution should be added to make up to 20 μL. c. […] was added to each well and the well plate was set still at 37° C. for 20-30 min. d. The absorbance at A562 nm was determined with a microplate reader. e. The protein concentrations of the samples were calculated according to the standard curves and the sample volumes used.

Series [2] can be described thus: Cell proliferation inhibition (cytotoxicity) by MTT assay, HepG2. In kind it is cell-based. To be noted: human, HepG2 cells, 48 hours after administration, average of three independent repeated experiments. How it is done: The human liver cancer cell line HepG2 was subcultured in a DMEM medium containing penicillin (final concentration: 100 U/mL), streptomycin (final concentration: 100 μg/mL) and 10% FBS under the same conditions as those in the subculture of HEK293A.
as §1

One may read the CC50 as the concentration at which the toxic effect on the cells reaches its halfway point. The term IC50 denotes the point on the concentration scale where inhibition reaches its midpoint. Low values mean greater potency in that assay, high ones weaker potency in that assay. Broadly, the melting point is the temperature, or range, at which the solid turns liquid. For the molecule `Cc1c(C(=O)O)oc2ccc(S(=O)(=O)N(CCc3ccccc3)c3ccccc3N3CCN(C(=O)c4ccccc4)CC3)cc12` [Example F27-S96], the melting point fell in the range of 128 to 129 °C. In addition, in series [1], the CC50 at 48 h was more than 160 µM. This molecule came in with an IC50 against FXR of 0.1 to 10 µM. For the same molecule, in the series with HepG2 cells, the “reduction of the increase in TG level of HepG2 cell induced by oleic acid and palmitate” value is reported as “significantly reduce”; the “reduction of the increase in TC level of HepG2 cell induced by oleic acid and palmitate” value is reported as “significantly reduce”. Further, in the series with HepG2 cells (HepG2, 20 μM, 40 μM, 80 μM), the “inhibitory effect on TC, dose dependence” value is “dose-dependent to some extent” and the “inhibitory effect on TG, dose dependence” value is recorded as “dose-dependent to some extent”. The same molecule yielded a half-maximal cytotoxic concentration (CC50) at 48 h in series [2] of more than 160 µM.

On to `CC(=O)C1=CC[C@H]2[C@@H]3CC=C4C[C@@H](O)CC[C@]4(C)[C@H]3CC[C@]12C` [Centatin, 1-((3S, 8R, 9S, 10R, 135, 14S)-3-hydroxy-10,13-dimethyl-2,3,4,7,8,9,10,11,12,13,14,15-dodecahydro-1H-cyclopenta[a]phenanthren-17-yl)ethan-1-one], for which, in the series on HepG2 cells, the “reduction of the increase in TG level of HepG2 cell induced by oleic acid and palmitate” value is “significantly reduce”; the “reduction of the increase in TC level of HepG2 cell induced by oleic acid and palmitate” value was “significantly reduce”.

For `Cc1ccc(C)c(OCCCC(C)(C)C(=O)NCC(=O)c2ccc(O)cc2)c1` [SIPI-7623, 5-(2,5-dimethylphenoxy)-N-(2-(4-hydroxyphenyl)-2-oxoethyl)-2,2-dimethylpentanamide], in the series with HepG2 cells, the “reduction of the increase in TG level of HepG2 cell induced by oleic acid and palmitate” value is recorded as “significantly reduce”; the “reduction of the increase in TC level of HepG2 cell induced by oleic acid and palmitate” value is “significantly reduce”.

In the case of `Cc1c(C(=O)O)oc2ccc(S(=O)(=O)N(CCc3ccccc3)Cc3ccccc3N3CCN(C(=O)c4ccccc4)CC3)cc12` [Example F27-S105, 3-methyl-5-(N-(2-(4-benzoylpiperazin-1-yl)benzyl)-N-phenethylsulfamoyl)benzofuran-2-carboxylic acid], the melting point lay in the range of 163 to 164 °C. The CC50 at 48 h in series [1] was more than 160 µM. At FXR, this molecule displayed an IC50 of 0.1 to 10 µM. In series [2], this molecule registered a CC50 at 48 h of more than 160 µM.

For the molecule `Cc1c(C(=O)O)oc2ccc(S(=O)(=O)N(CCc3ccccc3)c3ccc(Cc4ccccc4)cc3)cc12` [Example F27-S11, 3-methyl-5-(N-(4-benzylphenyl)-N-phenethylsulfamoyl)benzofuran-2-carboxylic acid], the melting point is 301 to 302 °C. This molecule had a CC50 at 48 h in series [1] of more than 160 µM. Also, at FXR, the IC50 lay within 0.1 to 10 µM. For the same molecule, the CC50 at 48 h in series [2] was more than 160 µM.

The molecule `Cc1c(C(=O)O)oc2ccc(S(=O)(=O)N(CCc3ccccc3)Cc3ccccc3N3CCN(C(=O)N(C)C)CC3)cc12` [Example F27-S101, 3-methyl-5-(N-(2-(4-(dimethylcarbamoyl)piperazin-1-yl)benzyl)-N-phenethylsulfamoyl)benzofuran-2-carboxylic acid] returned a melting point of 118 to 119 °C. Also, the half-maximal cytotoxic concentration (CC50) at 48 h in series [1] is more than 160 µM. The IC50 against FXR fell in the range of 0.1 to 10 µM. Also, in series [2], the CC50 at 48 h is more than 160 µM.

For the molecule `C/C=C1\C(=O)C[C@H]2[C@@H]3CCC4=CC(=O)CC[C@]4(C)[C@H]3CC[C@]12C` [Z-GS], in the series on HepG2 cells, the “reduction of the increase in TG level of HepG2 cell induced by oleic acid and palmitate” value was “significantly reduce”; the “reduction of the increase in TC level of HepG2 cell induced by oleic acid and palmitate” value is listed as “significantly reduce”.

`Cc1c(C(=O)O)oc2ccc(S(=O)(=O)N(CCc3ccccc3)Cc3cccc(Oc4ccccc4)c3)cc12` [Example F27-S27, 3-methyl-5-(N-(3-phenoxybenzyl)-N-phenethylsulfamoyl)benzofuran-2-carboxylic acid]: the melting point is more than 183 °C. This molecule also showed an IC50 at FXR of 10 to 50 µM.

Take `Cc1c(C(=O)O)oc2ccc(S(=O)(=O)N(CCc3ccccc3)c3ccc(Oc4ccccc4)cc3)cc12` [Example F27-S12, 3-methyl-5-(N-(4-phenoxyphenyl)-N-phenethylsulfamoyl)benzofuran-2-carboxylic acid]: the CC50 at 48 h in series [1] and in series [2] was more than 160 µM throughout. On FXR, this molecule returned an IC50 of 0.1 to 10 µM.
